Measured values: PubChem BioAssay (NCI)
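48-hour exposure; five concentrations; linearly interpolated endpoints. TGI: total growth inhibition.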

How the values were obtained:
Experiment in all cases: DTP human tumour cell line panel, 48 h
NCI-H460 lung = test system: NCI-H460 lung
T-47D breast = test system: T-47D breast
SK-MEL-28 melanoma = test system: SK-MEL-28 melanoma
TK-10 renal = test system: TK-10 renal
SK-MEL-5 melanoma = test system: SK-MEL-5 melanoma
SN12C renal = test system: SN12C renal
NCI-H226 lung = test system: NCI-H226 lung
SW-620 colon = test system: SW-620 colon
MDA-MB-435 = test system: MDA-MB-435
OVCAR-8 ovarian = test system: OVCAR-8 ovarian
SNB-19 CNS = test system: SNB-19 CNS
EKVX NSCLC = test system: EKVX NSCLC
SF-295 CNS = test system: SF-295 CNS
DU-145 prostate = test system: DU-145 prostate
UACC-257 melanoma = test system: UACC-257 melanoma
IGROV1 ovarian = test system: IGROV1 ovarian
OVCAR-3 ovarian = test system: OVCAR-3 ovarian
OVCAR-4 ovarian = test system: OVCAR-4 ovarian

Row | SMILES | TGI (NCI-H460 lung) [µM] | TGI (T-47D breast) [µM] | TGI (SK-MEL-28 melanoma) [µM] | TGI (TK-10 renal) [µM] | TGI (SK-MEL-5 melanoma) [µM] | TGI (SN12C renal) [µM] | TGI (NCI-H226 lung) [µM] | TGI (SW-620 colon) [µM] | TGI (MDA-MB-435) [µM] | TGI (OVCAR-8 ovarian) [µM] | TGI (SNB-19 CNS) [µM] | TGI (EKVX NSCLC) [µM] | TGI (SF-295 CNS) [µM] | TGI (DU-145 prostate) [µM] | TGI (UACC-257 melanoma) [µM] | TGI (IGROV1 ovarian) [µM] | TGI (OVCAR-3 ovarian) [µM] | TGI (OVCAR-4 ovarian) [µM]
1 | CC1(C)SCc2nc3ccccc3n21 | > 100 | > 100 | > 100 | > 100 | > 100 | > 100 | > 100 | > 100 | > 100 | > 100 | > 100 | > 100 | > 100 | > 100 | > 100 | > 100 | > 100 | > 100
2 | Nc1nc(Br)nc2ncn(C3CC(O)C(CO)O3)c12 (stereo unspecified) | > 100 | > 100 | > 100 | > 100 | > 100 | > 100 | > 100 | > 100 | > 100 | > 100 | > 100 | > 100 | > 100 | > 100 | > 100 | > 100 | > 100 | > 100
3 | Cc1cnc2c(c1)C(=O)N(c1ccc([N+](=O)[O-])cc1)S2(=O)=O | > 100 | > 100 | > 100 | > 100 | > 100 | > 100 | 78.5 | > 100 | > 100 | > 100 | > 100 | > 100 | > 100 | > 100 | > 100 | > 100 | > 100 | > 100
4 | OCC1OC(n2cnc3c(SCc4ccccc4)ncnc32)C(O)C1O (stereo unspecified) | > 100 | > 100 | > 100 | > 100 | > 100 | > 100 | > 100 | > 100 | > 100 | 37.4 | > 100 | > 100 | > 100 | > 100 | > 100 | > 100 | > 100 | > 100
5 | O=C(NCCc1ccccc1)c1cc(/C=C/c2cc(O)ccc2O)ccc1O | 24.6 | 3.86 | 10.4 | 7.16 | 7.32 | 19 | 27.8 | > 45.5 | 25.8 | 16.3 | 19.6 | 8.24 | 35.2 | 28.1 | 8.57 | 11.3 | 8.11 | 3.76
6 | C(=N\NC1=NCCN1)/c1cccc2cc3ccncc3nc12 | 20.5 | 12.7 | 22.8 | 22.2 | 22.9 | 14.9 | 21.2 | 6.91 | 10.5 | 5.15 | 21.4 | 14.9 | 14.5 | 19.9 | 24.6 | 15.8 | 17.1 | 12.3
7 | O=C1CCN2C(=N1)Sc1ccccc12 | > 100 | > 100 | > 100 | > 100 | > 100 | > 100 | > 100 | > 100 | > 100 | > 100 | > 100 | > 100 | > 100 | > 100 | > 100 | > 100 | > 100 | > 100
